Key:
[1] = target: T1, AKR1C3 (Homo sapiens, UniProt P42330); experiment: Steady state kinetic parameters of fluorogenic substrates with purified AKR1C isozymes; type: biochemical
T1 construct: gift of Professor Trevor Penning (University of Pennsylvania School of Medicine)
T1 sequence (P42330 1-323): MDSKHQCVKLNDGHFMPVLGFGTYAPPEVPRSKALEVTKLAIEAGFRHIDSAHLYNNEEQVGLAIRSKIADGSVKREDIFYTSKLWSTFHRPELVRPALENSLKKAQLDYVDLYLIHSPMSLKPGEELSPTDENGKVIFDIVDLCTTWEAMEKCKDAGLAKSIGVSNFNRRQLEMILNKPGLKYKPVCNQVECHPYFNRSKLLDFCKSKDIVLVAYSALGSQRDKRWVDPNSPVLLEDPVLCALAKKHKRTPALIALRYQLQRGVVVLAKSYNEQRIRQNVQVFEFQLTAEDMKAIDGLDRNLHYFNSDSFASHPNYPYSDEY
Procedure: The initial reaction rates were used to derive standard kinetic parameters (kcat and Km, Materials and Methods).
Substrate tolerance of AKR1Cs: Isozyme Activity with 5a-5i: Activity of the second generation of fluorogenic substrates with the AKR1C isozymes was determined as follows. […] After mixing the aqueous components thoroughly, 20 μL of acetonitrile was added as a cosolvent and mixed well. […] 4 μL of undiluted AKR1C (provided generously by the Penning lab at concentrations of 2.5 mg/mL) were then added to the cuvette for a total of 10 μg purified enzyme in the 1 mL assay volume. Fluorescence arising from the respective alcohol reduction product was then monitored over the course of 5-10 minutes.
Binding constant and catalytic rates (Km and kcat) of the second generation of fluorogenic substrates was determined as follows. […] After mixing the aqueous components thoroughly, 20 μL of acetonitrile was added as a cosolvent and mixed well. […] To initiate the reduction, 2 or 4 μL of diluted AKR1C (1:2 to 1:100, depending on the kinetics of a particular isozyme's reduction of a substrate) was then added to the cuvette. Fluorescence arising from the respective alcohol reduction product was then monitored over the course of 3 minutes (Excitation and emission band pass slits both at 4 nm, lamp 700 V, λexc 410 nm, λem 510).
initial rate=[nst×(Ft−F0)/(Fst)]/t (1)
where Ft and F0 represent the fluorescence at times t and 0 minutes, nst is the nanomoles of product in a known concentration of product, and Fst is the fluorescence resulting from nst of product. […] Reported enzymatic kinetic parameters are the average of three independent determinations from three different preparations of substrate and enzyme.

[2] = system: HepG2 cell fractions; experiment: Metabolism of phenyl ketone 5c in HepG2 cell fractions; type: in vitro ADME, human; details: 10 μM 5c
Procedure: FIG. 17. Reactivity of HepG2 cell fractions with 5c. Assays were performed in 50 mM Tris-HCl buffer containing 1 mM NADPH, 10 μM 5c and 80 μg protein/mL, incubated for 60 minutes. Legend: (+) without flufenamic acid; (−) with 100 μM flufenamic acid; HepG2=hepatoma cell line.
Selectivity of Phenyl Ketone Probe 5c in Cellular Lysates: The selectivity of phenyl ketone probe 5c in human hepatoma cells (HepG2), which are known to express all four AKR1C isozymes in the cytoplasm, was tested. […] An issue may be non-selective reduction of probes with microsomes, which are organelles enriched with redox enzymes. Following one hour incubation of probe 5c with both cytosolic and microsomal fractions prepared from HepG2 cells, the resulting mixtures were analyzed fluorimetrically. […] Moreover, reduction by the cytoplasmic extract was suppressed by flufenamic acid, a known inhibitor of the AKR1C isozymes (Penning, T. M.; Talalay, P. Proc Natl Acad Sci USA 1983, 4504-4508).
HepG2 cells were obtained from and grown in the Penning laboratory (University of Pennsylvania School of Medicine). Cells were maintained at 37° C. and 5% CO2 containing Eagle's minimal essential medium supplemented with 100 U/mL penicillin, 100 μg/mL streptomycin, 2 mM L-glutamine, and 10 % heat-inactivated fetal bovine serum.
To measure metabolism of 5c in HepG2 cell fractions, the cells were harvested and fractionized as follows. HepG2 cells were grown to confluency on eight 15×100 mm dishes, whereupon 500 μL of ice cold Tris-HCl-sucrose buffer (50 mM Tris-HCl at pH 7.4, 250 mM sucrose, 1 mM EDTA, and 1 mM 2-mercaptoethanol) was added to each dish. Cells were scratched off and taken up directly into an ice cold potter. These cells were then homogenized and sonicated (10 one-second 10 W bursts, four times on ice). […]
Protein concentrations for whole or fractionized HepG2 cells were determined by standard Bradford assays (Bradford, M. M.; Anal. Biochem. 1976, 72, 248). […] Reactions were initiated with 80 μg of protein per 1 mL assay and monitored fluorimetrically for up to 2 hours. […]

[3] = isozyme 1C3, potassium phosphate buffer pH 6, NADPH, fluorimetric

Km ([1]; AKR1C3, value of the text)	Kcat [1, 3]	Km [1, 3]	reduction in cytoplasmic (cytosolic) fraction ([2]; HepG2 cytosolic fraction, 1 mM NADPH, 80 μg protein/mL, one hour incubation)	stability / reduction in microsomal fraction ([2]; HepG2 microsomes, 1 mM NADPH, 80 μg protein/mL, one hour incubation)	SMILES	effect on reduction of 5c by the cytoplasmic extract ([2]; 100 μM flufenamic acid, HepG2 cytoplasmic extract)
0.051 µM	0.0988 s⁻¹	0.05 µM	enzymatic reduction occurred	stable in the presence of microsomes	O=C(c1ccccc1)c1cc(=O)oc2c3c4c(cc12)CCCN4CCC3 [5c, 8-Benzoyl-2,3,5,6-tetrahydro-1H,4H-11-oxa-3a-aza-benzo[de]anthracen-10-one]	–
–	–	–	–	–	O=C(O)c1ccccc1Nc1cccc(C(F)(F)F)c1 [flufenamic acid, reference compound]	suppressed
